According to patent US20070231407A1, “Method of treating gallium-nitrate resistant tumors using gallium-containing compounds” (priority 2006, published 2007):

Columns and labels:
[1] = tested on: HBL-2 cells; test: MTT cell proliferation assay, mantle cell lymphoma HBL-2 cells; format: cell-based, human; settings: 72 h, FIG. 3
Description: Mantle cell lymphoma (HBL-2 (Human B-cell lymphoma-derived cell line), Granta, JVM-2, NCEB-1, Z138C) and DoHH2 cell lines were obtained from the British Columbia Cancer Agency. p53 cell lines were obtained from the NCI. […] (San Francisco, Calif.) and Genta Incorporated (Berkley Heights, N.J.), respectively. Cell proliferation was measured by MTT assay (Mosmann T. “Rapid colorimetric assay for cellular growth and survival: Application to proliferation and cytotoxicity assays”. J Immunol Methods 1983; 65:55-63, incorporated by reference here in its entirety). Caspase-3 activity was measured by ApoOne assay (Promega, Madison, Wis.). Assays for cellular ^59Fe-transferrin uptake and ^125I-transferrin binding were used as previously described in Chitambar, 1997. […] Cells were then solubilized by the addition of 100 μL 0.4 N HCl in isopropanol to each well and the absorbance of each well was read at 570 nm using a spectrophotometer. Cell proliferation was measured after a 72 h incubation period. The effect of the additives on cell proliferation was determined by comparing the absorbance from wells with the additives with the absorbance from wells in which the additives were omitted (decreased absorbance signifies decreased cell proliferation). Cell growth was expressed as a percentage of control (cell growth in the absence of additives).

[2] = tested on: CCRF-CEM cells; test: MTT cell growth assay, CCRF-CEM cells (GaN-sensitive); format: cell-based, human; settings: for IC50: MTT assay, 72 h incubation, read-out: IC50, inhibition of T lymphoma CCRF-CEM cell growth; for Inhibition of CCRF-CEM cell growth (in words): increasing concentrations, 72 h, MTT, FIG. 2
Description: CCRF-CEM cells were obtained from ATCC.
(§1) Mantle cell lymphoma (HBL-2 (Human B-cell lymphoma-derived cell line), Granta, JVM-2, NCEB-1, Z138C) and DoHH2 cell lines were obtained from the British Columbia Cancer Agency. p53 cell lines were obtained from the NCI. Gallium maltolate and gallium nitrate were obtained from Titan Pharmaceuticals Inc. (San Francisco, Calif.) and Genta Incorporated (Berkley Heights, N.J.), respectively. Cell proliferation was measured by MTT assay (Mosmann T. “Rapid colorimetric assay for cellular growth and survival: Application to proliferation and cytotoxicity assays”. J Immunol Methods 1983; 65:55-63, incorporated by reference here in its entirety). Caspase-3 activity was measured by ApoOne assay (Promega, Madison, Wis.). Assays for cellular ^59Fe-transferrin uptake and ^125I-transferrin binding were used as previously described in Chitambar, 1997.
(§2) CCRF-CEM cells were plated at a density of 2×10^5 cells/ml in microwell plates (100 μL cell suspension per well) in the presence of increasing concentrations of gallium maltolate or maltol (subsequently referred to as the additives). After 72 h of incubation, 10 μL MTT (3-(4,5-dimethlythiazol-2-yl)-2,5-diphenyltetrazolium bromide) was added to each well and the incubation continued for 4 h at 37° C. Cells were then solubilized by the addition of 100 μL of 0.4 N HCl in isopropanol to each well and the absorbance of each well was read at 570 nm using a microplate reader. The effect of the additives on cell proliferation was determined by comparing the absorbance from wells containing the additives with the absorbance from wells in which the additives were omitted (decreased absorbance signifies decreased cell proliferation). Cell growth was expressed as a percentage of control (cell growth in the absence of additives). Cell proliferation was assessed after 72 h of incubation with gallium maltolate or maltol.
Cell growth was determined by MTT assay as described in Example 1 above. Values shown are means +/−S.E. (n=4).
To determine the effect of GaM on the growth of gallium nitrate-resistant (GnR) and -sensitive (GnS) cells, cells were plated in microwell plates and incubated with GaM. Cellular proliferation was measured by MTT assay after 72 h incubation with GaM. Values shown are means +/−S.E. (n=4).

[3] = tested on: caspase-3; test: Caspase-3 activation (apo-One assay) in HBL-2 cells; format: cell-based, human; settings: for Caspase-3 activity in exposed cells, dose dependence: see FIG. 4
Description: as §1
After incubation with these compounds, the cells were analyzed for apoptosis using the commercially available apo-One™ assay that measures caspase-3 activation. Data points are the means and S.E. of an experiment performed in triplicate.

[4] = tested on: p53 wt TK-6 cells; test: MTT cell growth assay, p53 wt TK-6 cells; format: cell-based, human; settings: 72 h
Description: (§3) Mantle cell lymphoma (HBL-2 (Human B-cell lymphoma-derived cell line), Granta, JVM-2, NCEB-1, Z138C) and DoHH2 cell lines were obtained from the British Columbia Cancer Agency. p53 cell lines were obtained from the NCI. […] Cell proliferation was measured by MTT assay (Mosmann T. “Rapid colorimetric assay for cellular growth and survival: Application to proliferation and cytotoxicity assays”. J Immunol Methods 1983; 65:55-63, incorporated by reference here in its entirety). Caspase-3 activity was measured by ApoOne assay (Promega, Madison, Wis.). Assays for cellular ^59Fe-transferrin uptake and ^125I-transferrin binding were used as previously described in Chitambar, 1997.
as §2, with “After 72 h of incubation, 10 μL MTT (3-(4,5-dimethlythiazol-2-yl)-2,5-diphenyltetrazolium bromide) was added to each well and the incubation continued for 4 h at 37° C.” left out, “Cell growth was expressed as a percentage of control (cell growth in the absence of additives). Cell proliferation was assessed after 72 h of incubation with gallium maltolate or maltol.” left out

[5] = tested on: p53 mutant WTK-1 cells; test: MTT cell growth assay, p53 mutant WTK-1 cells; format: cell-based, human; settings: 72 h
Description: as §3
as §2, with “After 72 h of incubation, 10 μL MTT (3-(4,5-dimethlythiazol-2-yl)-2,5-diphenyltetrazolium bromide) was added to each well and the incubation continued for 4 h at 37° C.” left out, “Cell growth was expressed as a percentage of control (cell growth in the absence of additives). Cell proliferation was assessed after 72 h of incubation with gallium maltolate or maltol.” left out

[6] = tested on: lymphoma cell lines; test: Annexin V staining of cells exposed to gallium compounds; format: cell-based; settings: cells exposed to GaN or GaM
[7] = tested on: GaN-resistant CCRF-CEM cells; test: MTT cell growth assay, gallium nitrate-resistant (GnR) CCRF-CEM cells; format: cell-based, human
Description: as §3
as §2, with “After 72 h of incubation, 10 μL MTT (3-(4,5-dimethlythiazol-2-yl)-2,5-diphenyltetrazolium bromide) was added to each well and the incubation continued for 4 h at 37° C.” left out, “Cell growth was expressed as a percentage of control (cell growth in the absence of additives). Cell proliferation was assessed after 72 h of incubation with gallium maltolate or maltol.” left out

[8] = tested on: HBL-2 cells; test: Cellular 59Fe-transferrin (iron) uptake by HBL-2 cells; format: cell-based, human; settings: 24 h, increasing concentrations of GaM, FIG. 7
Description: as §1
HBL-2 cells were incubated in complete medium in the presence of increasing concentrations of GaM. Radioiron (^59Fe-transferrin) was added to cells at the start of the incubation. After 24 h, cells were harvested, washed with phosphate buffered saline to remove unincorporated ^59Fe and centrifuged to pellet the cells. ^59Fe radioactivity in the cell pellet was counted in a gamma counter. The results showing that the amount of radioiron taken up by cells decreases with increasing concentrations of GaM are depicted in FIG. 7.

[9] = tested on: MCL cell lines HBL2, JVM2, Z138C, and Granta; test: MTT cell growth assay, mantle cell lymphoma (MCL) cell lines; format: cell-based, human; settings: range over the four cell lines, 72 h, read-out: IC50, growth inhibition of MCL cell lines HBL2, JVM2, Z138C, and Granta
Description: Mantle cell lymphoma (HBL-2 (Human B-cell lymphoma-derived cell line), Granta, JVM-2, NCEB-1, Z138C) and DoHH2 cell lines were obtained from the British Columbia Cancer Agency. p53 cell lines were obtained from the NCI. Gallium maltolate and gallium nitrate were obtained from Titan Pharmaceuticals Inc. (San Francisco, Calif.) and Genta Incorporated (Berkley Heights, N.J.), respectively. Cell proliferation was measured by MTT assay (Mosmann T. “Rapid colorimetric assay for cellular growth and survival: Application to proliferation and cytotoxicity assays”. J Immunol Methods 1983; 65:55-63, incorporated by reference here in its entirety). Caspase-3 activity was measured by ApoOne assay (Promega, Madison, Wis.). […]
as §2, with “After 72 h of incubation, 10 μL MTT (3-(4,5-dimethlythiazol-2-yl)-2,5-diphenyltetrazolium bromide) was added to each well and the incubation continued for 4 h at 37° C.” left out, “Cell growth was expressed as a percentage of control (cell growth in the absence of additives). Cell proliferation was assessed after 72 h of incubation with gallium maltolate or maltol.” left out

[10] = tested on: caspase-3; test: Caspase-3 activity (apo-One assay) in GnR CCRF-CEM cells; format: cell-based, human; settings: 24 h incubation, FIG. 5D
Description: as §1
After the incubation period, caspase-3 activity was measured by apo-One™ assay.

[11] = tested on: transferrin (Tf) receptor; test: 125I-transferrin binding assay, cell surface transferrin receptor density in HBL-2 cells; format: cell-based, human; settings: FIG. 8
Description: as §1
To determine the mechanism by which GaM acts on cells, cellular transferrin receptor expression was evaluated in HBL-2 cells. The effect of GaM on cellular transferrin receptor expression was determined using a ^125I-transferrin (Tf) binding assay that measures the binding of the ligand Tf to its receptor (TfR). HBL-2 cells were incubated with increasing concentrations of GaM for 24 and 48 h and then analyzed for Tf binding using an established method. The amount of radioactive Tf bound to cellular TfR was calculated using Scatchard analysis.

[12] = tested on: p53 null HN-32 cells; test: MTT cell growth assay, p53 null HN-32 cells; format: cell-based, human; settings: 72 h
Description: as §3
as §2, with “After 72 h of incubation, 10 μL MTT (3-(4,5-dimethlythiazol-2-yl)-2,5-diphenyltetrazolium bromide) was added to each well and the incubation continued for 4 h at 37° C.” left out, “Cell growth was expressed as a percentage of control (cell growth in the absence of additives). Cell proliferation was assessed after 72 h of incubation with gallium maltolate or maltol.” left out

Q: For `Cc1occc(=O)c1[O-].Cc1occc(=O)c1[O-].Cc1occc(=O)c1[O-].[Ga+3]` [GaM, gallium maltolate], which “Inhibition of HBL-2 cell proliferation, GaM compared with GaN (in words)” value [1] is on record?
A: much lower concentrations of gallium were required to inhibit cell proliferation

Q: What about the IC50 [2] of the same compound?
A: 29 µM

Q: What about the “Inhibition of CCRF-CEM cell growth (in words)” value [2] of the same compound?
A: inhibited

Q: And the “Caspase-3 activation in HBL-2 cells” value ([3]; 48 h incubation, similar concentrations of GaM and GaN, FIG. 4)?
A: activated

Q: What about the “Caspase-3 activity in exposed cells, dose dependence” value [3] of the same compound?
A: dose-dependent increase

Q: What about the IC50 [4] of the same compound?
A: 18 µM

Q: And the “Growth of p53 wt TK-6 cells (in words)” value ([4]; FIG. 6)?
A: inhibited to a similar extent

Q: What about the IC50 [5] of the same compound?
A: 45 µM

Q: What about the “Growth of p53 mutant WTK-1 cells (in words)” value ([5]; FIG. 6) of the same compound?
A: inhibited to a similar extent

Q: And the “Annexin V staining” value [6]?
A: increase

Q: And the “Proliferation of GnR cells resistant to GaN (in words)” value ([7]; FIG. 5)?
A: inhibits proliferation

Q: What about the IC50 ([7]; MTT assay, 72 h incubation, read-out: IC50, growth inhibition of GaN-resistant cells) of the same compound?
A: 70 µM

Q: What about the “Amount of radioiron (59Fe) taken up by cells” value [8] of the same compound?
A: decreases

Q: What about the IC50 [9] of the same compound?
A: 15 to 30 µM

Q: And the “Caspase-3 activation in GnR cells” value [10]?
A: activates caspase-3

Q: And the “Number of TfRs on the cell surface” value ([11]; 24 h, 25 and 50 μM GaM)?
A: increase the number of TfRs

Q: What about the “Number of TfRs on the cell surface” value ([11]; 48 h, 25 μM GaM) of the same compound?
A: increases TfR number

Q: What about the IC50 [12] of the same compound?
A: 45 µM

Q: What about the “Growth of p53 null HN-32 cells (in words)” value ([12]; FIG. 6) of the same compound?
A: inhibited to a similar extent

Q: With `O=[N+]([O-])[O-].O=[N+]([O-])[O-].O=[N+]([O-])[O-].[Ga+3]` [GaN, gallium nitrate, reference compound] as the compound, how does the IC50 [2] read?
A: 103 µM

Q: And the “Caspase-3 activity in exposed cells, dose dependence” value [3]?
A: dose-dependent increase

Q: And the “Annexin V staining” value [6]?
A: increase

Q: And the IC50 [9]?
A: 45 to 400 µM

Q: And the “Caspase-3 activation in GnR cells” value [10]?
A: not

Q: How did the “Inhibition of CCRF-CEM cell growth (in words)” value [2] turn out when `Cc1occc(=O)c1O` [Maltol, maltol, reference compound] was run?
A: did not inhibit cell growth
